Experiment [1] has as its system P. falciparum 3D7 parasites. As to the kind of experiment: P. falciparum parasite viability assay (LDH). Type of experiment: cell-based. The note with it: LDH activity, 10-point dilution series, 72 h, read-out: P. falciparum 3D7 EC50. On the procedure: A modified version of the lactate dehydrogenase (LDH) assay described by [Gamo et al. […] Compounds were pre-dispensed in 384-well plates, RPMI/Albumax growth media was added, and P. falciparum inoculated. Plates were incubated for 72 h and then frozen at −80 °C overnight. LDH activity was quantified with the modified cofactor 3-acetylpyridine adenine dinucleotide (APAD) (Sigma Aldrich) by measuring absorbance of the tetrazolium indicator nitro blue tetrazolium (NBT) (Sigma Aldrich) at 650 nm. Parasite conditions: […] Growth inhibition assay: […] Intermediate compound dilution plates were prepared by dispensing 5 μL from each well of the compound master plate into 11.5 μL of RPMI/Albumax growth media. Duplicate assay plates (384-well) were then prepared by dispensing 0.5 μL of compound from the intermediate dilution plates into 9.5 μL of RPMI/Albumax growth media. […] The final DMSO concentration was 0.1% (to limit toxicity to parasites). […] Evaluation of parasite growth measuring lactate dehydrogenase (LDH) activity: After 72 h of incubation, plates were frozen at −80 °C overnight and then thawed at room temperature for at least 4 h. […] Plates were shaken to ensure mixing and absorbance at 650 nm was monitored using a PerkinElmer Envision plate reader after 30 min of incubation at room temperature. Data were normalised to percent growth inhibition using positive and negative controls and analyzed using TIBCO Spotfire software.

For experiment [2], the target named is T1, P. falciparum Rh5 (Rh5 – basigin interaction) (Plasmodium falciparum, UniProt Q8IFM5). Put plainly: biochemical. The following applies: Batch Reference=01; primary pilot screen, single point. The arrangement: AlphaScreen of Rh5 - His-tagged basigin interaction with anti-Rh5 mAb beads; inhibition of luminescence signal. On the procedure:
Using the Combi-multidrop, 5 μL of Rh5 stock solution (200 nM prepared in assay buffer) was added to columns 1–24 of the 384-well assay plate (Greiner 384-well white, low binding plate, #784904, Bioone). The PerkinElmer Janus automated dispensing system was then employed to transfer, via the pin-tool, 2 × 100 nL of the compound stock DMSO solution from the compound master plate to the assay plate. The plate was sealed and incubated for 30 min at room temperature. Using a Combi-multidrop, 5 μL of hexa-histidine tagged basigin stock solution (80 nM prepared in assay buffer) was then added to columns 1–23 and 5 μL assay buffer to column 24 of the 384-well assay plate. The plate was sealed again and incubated for 30 min at room temperature. A solution of AlphaScreen donor and acceptor beads (20 μg/mL prepared in assay buffer) plus anti-Rh5 mAb solution (2 μg/mL prepared in assay buffer) was prepared in assay buffer under subdued lighting. Using the Combi-multidrop, 10 μL of this solution was added to every well of the assay plate under subdued lighting. The plate was sealed with foil (plate max) and incubated at room temperature for 1 h. The assay plate was then analysed on the PerkinElmer Envision 2103 Multilabel Plate Reader (Ex 680, Em 520–620 nm). The optimised Rh5 AlphaScreen assay was then validated for HT screening purposes by conducting a pilot screen using known drug library (from Prestwick, Tocris and LOPAC) and the MMV Malaria Box, comprising 3708 and 400 compounds (Fig. 1), respectively. Historically, PPIs are notoriously difficult to target with small molecules. To enhance the likelihood of identifying an inhibitor of the Rh5 - basigin interaction the primary screen was conducted at a compound concentration of 20 μM. A 20 μM screening concentration is considered high, when compared to the commonly used primary screen concentrations of approximately 1–10 μM. To follow-up on hit compounds from the pilot validation screen, we next wanted to confirm the activity of the primary hits. To do this, a two-phase hit confirmation and counterscreen process was undertaken (Fig. 1). In the first phase, the 231 primary hits from both libraries were evaluated in the Rh5 AlphaScreen assay and counterscreen assay. Both assays were undertaken at 10 μM in duplicate. The counterscreen assay was conducted using AlphaScreen TruHits. […] The 45 secondary hits can be viewed in the top left quadrant of Fig. S8. Of the 45 hits, 13 compounds originated from the Malaria Box and 32 compounds from the known drug library.

For experiment [3], the target named is T1, P. falciparum Rh5 (Rh5 – basigin interaction). Put plainly: biochemical. The arrangement: AlphaScreen of Rh5 - His-tagged basigin interaction with anti-Rh5 mAb beads; inhibition of luminescence signal. The following applies: Batch Reference=01; confirmation screen, duplicate. On the procedure:
Using the Combi-multidrop, 5 μL of Rh5 stock solution (200 nM prepared in assay buffer) was added to columns 1–24 of the 384-well assay plate (Greiner 384-well white, low binding plate, #784904, Bioone). The PerkinElmer Janus automated dispensing system was then employed to transfer, via the pin-tool, 2 × 100 nL of the compound stock DMSO solution from the compound master plate to the assay plate. The plate was sealed and incubated for 30 min at room temperature. Using a Combi-multidrop, 5 μL of hexa-histidine tagged basigin stock solution (80 nM prepared in assay buffer) was then added to columns 1–23 and 5 μL assay buffer to column 24 of the 384-well assay plate. The plate was sealed again and incubated for 30 min at room temperature. A solution of AlphaScreen donor and acceptor beads (20 μg/mL prepared in assay buffer) plus anti-Rh5 mAb solution (2 μg/mL prepared in assay buffer) was prepared in assay buffer under subdued lighting. Using the Combi-multidrop, 10 μL of this solution was added to every well of the assay plate under subdued lighting. The plate was sealed with foil (plate max) and incubated at room temperature for 1 h. The assay plate was then analysed on the PerkinElmer Envision 2103 Multilabel Plate Reader (Ex 680, Em 520–620 nm). […] Historically, PPIs are notoriously difficult to target with small molecules. To enhance the likelihood of identifying an inhibitor of the Rh5 - basigin interaction the primary screen was conducted at a compound concentration of 20 μM. A 20 μM screening concentration is considered high, when compared to the commonly used primary screen concentrations of approximately 1–10 μM. […] To do this, a two-phase hit confirmation and counterscreen process was undertaken (Fig. 1). […] Both assays were undertaken at 10 μM in duplicate. The counterscreen assay was conducted using AlphaScreen TruHits.

pEC50: −log10 of the molar value. Like-named read-outs stand apart in the source and are kept apart here.

T1 sequence (Q8IFM5 24-526): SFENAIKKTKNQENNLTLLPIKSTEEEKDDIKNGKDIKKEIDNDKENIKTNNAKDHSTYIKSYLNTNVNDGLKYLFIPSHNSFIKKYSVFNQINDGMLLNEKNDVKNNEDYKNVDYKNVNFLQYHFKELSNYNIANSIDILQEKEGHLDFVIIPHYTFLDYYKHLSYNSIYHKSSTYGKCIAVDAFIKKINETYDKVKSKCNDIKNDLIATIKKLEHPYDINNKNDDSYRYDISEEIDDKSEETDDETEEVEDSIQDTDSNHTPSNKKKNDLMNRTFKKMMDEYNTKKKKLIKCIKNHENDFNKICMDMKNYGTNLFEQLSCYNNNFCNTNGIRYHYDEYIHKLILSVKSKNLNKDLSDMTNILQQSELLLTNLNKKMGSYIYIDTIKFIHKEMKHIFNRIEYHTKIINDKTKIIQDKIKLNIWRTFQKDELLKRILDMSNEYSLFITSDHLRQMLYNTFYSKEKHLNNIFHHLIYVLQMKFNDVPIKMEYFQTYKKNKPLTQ

Broadly, the pEC50 is the EC50 on a negative log10 scale, so that one unit is a factor of ten. For orientation: inhibition means the relative decrease from the control value, in per cent. A high value points to a response far below the control. With `O=C(Nc1cccc2c(=O)cc(-c3nnn[nH]3)oc12)c1ccc(OCCCCc2ccccc2)cc1` [pranlukast], the negative logarithm of the EC50 (pEC50) in experiment [1] was 4.40; in experiment [1] (Plasmodium falciparum, 3D7, 72 h), 4.41. The compound also registered an inhibition at 20 µM in experiment [2] of 75.4%. Also, in experiment [3], at 10 µM the inhibition was 69%.

Source of the values: paper PMC7645381, “Development and application of a high-throughput screening assay for identification of small molecule inhibitors of the P. falciparum reticulocyte binding-like homologue 5 protein” (International Journal for Parasitology: Drugs and Drug …, 2020).
